Assays:
[1] = biological target: Calcium/calmodulin-dependent protein kinase type II subunit beta (Homo sapiens) (UniProt Q13554); details: at 10 µM
[2] = biological target: Tyrosine-protein kinase Fgr (Homo sapiens) (UniProt P09769); assay: Selectivity interaction (Kinase panel (Invitrogen)) EUB0000639a FGR; details: at 200 nM
[3] = biological target: Angiopoietin-1 receptor (Homo sapiens) (UniProt Q02763); assay: Selectivity interaction (Kinase panel (literature)) EUB0001199aCl TEK; details: at 1 µM
Angiopoietin-1 receptor (Homo sapiens), sequence (Q02763 whole entry): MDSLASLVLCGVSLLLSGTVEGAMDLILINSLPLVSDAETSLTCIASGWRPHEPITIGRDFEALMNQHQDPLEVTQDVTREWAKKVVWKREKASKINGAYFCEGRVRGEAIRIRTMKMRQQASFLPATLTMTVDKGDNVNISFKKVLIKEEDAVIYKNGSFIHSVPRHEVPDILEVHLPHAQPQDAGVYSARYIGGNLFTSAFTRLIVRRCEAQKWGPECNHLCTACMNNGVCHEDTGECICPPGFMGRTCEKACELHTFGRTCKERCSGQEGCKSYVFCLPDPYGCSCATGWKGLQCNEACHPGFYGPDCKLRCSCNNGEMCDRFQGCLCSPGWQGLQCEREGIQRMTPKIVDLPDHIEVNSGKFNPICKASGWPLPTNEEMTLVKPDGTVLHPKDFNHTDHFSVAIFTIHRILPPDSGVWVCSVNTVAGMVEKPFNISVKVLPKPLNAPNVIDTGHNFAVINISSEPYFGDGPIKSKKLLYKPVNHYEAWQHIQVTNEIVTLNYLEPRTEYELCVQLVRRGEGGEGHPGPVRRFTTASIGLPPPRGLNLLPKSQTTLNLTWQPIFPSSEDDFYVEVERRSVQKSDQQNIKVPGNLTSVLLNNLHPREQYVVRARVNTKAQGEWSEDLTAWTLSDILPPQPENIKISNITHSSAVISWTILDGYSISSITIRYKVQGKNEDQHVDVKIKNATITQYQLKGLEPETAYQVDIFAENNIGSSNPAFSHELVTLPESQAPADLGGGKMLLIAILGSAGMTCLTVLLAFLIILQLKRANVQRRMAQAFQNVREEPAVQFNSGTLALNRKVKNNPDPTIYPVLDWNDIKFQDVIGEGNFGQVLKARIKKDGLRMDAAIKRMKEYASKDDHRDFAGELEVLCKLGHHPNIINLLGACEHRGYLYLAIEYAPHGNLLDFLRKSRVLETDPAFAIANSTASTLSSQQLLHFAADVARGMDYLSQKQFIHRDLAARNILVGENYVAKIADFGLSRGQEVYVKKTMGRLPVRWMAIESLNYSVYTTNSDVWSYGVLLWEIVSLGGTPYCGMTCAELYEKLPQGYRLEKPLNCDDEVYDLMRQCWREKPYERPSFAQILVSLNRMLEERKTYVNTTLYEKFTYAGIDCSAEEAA

[4] = biological target: Serine/threonine-protein kinase MRCK beta (Homo sapiens) (UniProt Q9Y5S2); assay: Selectivity interaction (KinomeScan (DiscoverX)) EUB0000695a CDC42BPB; details: at 100 nM
Serine/threonine-protein kinase MRCK beta (Homo sapiens), sequence (Q9Y5S2 whole entry): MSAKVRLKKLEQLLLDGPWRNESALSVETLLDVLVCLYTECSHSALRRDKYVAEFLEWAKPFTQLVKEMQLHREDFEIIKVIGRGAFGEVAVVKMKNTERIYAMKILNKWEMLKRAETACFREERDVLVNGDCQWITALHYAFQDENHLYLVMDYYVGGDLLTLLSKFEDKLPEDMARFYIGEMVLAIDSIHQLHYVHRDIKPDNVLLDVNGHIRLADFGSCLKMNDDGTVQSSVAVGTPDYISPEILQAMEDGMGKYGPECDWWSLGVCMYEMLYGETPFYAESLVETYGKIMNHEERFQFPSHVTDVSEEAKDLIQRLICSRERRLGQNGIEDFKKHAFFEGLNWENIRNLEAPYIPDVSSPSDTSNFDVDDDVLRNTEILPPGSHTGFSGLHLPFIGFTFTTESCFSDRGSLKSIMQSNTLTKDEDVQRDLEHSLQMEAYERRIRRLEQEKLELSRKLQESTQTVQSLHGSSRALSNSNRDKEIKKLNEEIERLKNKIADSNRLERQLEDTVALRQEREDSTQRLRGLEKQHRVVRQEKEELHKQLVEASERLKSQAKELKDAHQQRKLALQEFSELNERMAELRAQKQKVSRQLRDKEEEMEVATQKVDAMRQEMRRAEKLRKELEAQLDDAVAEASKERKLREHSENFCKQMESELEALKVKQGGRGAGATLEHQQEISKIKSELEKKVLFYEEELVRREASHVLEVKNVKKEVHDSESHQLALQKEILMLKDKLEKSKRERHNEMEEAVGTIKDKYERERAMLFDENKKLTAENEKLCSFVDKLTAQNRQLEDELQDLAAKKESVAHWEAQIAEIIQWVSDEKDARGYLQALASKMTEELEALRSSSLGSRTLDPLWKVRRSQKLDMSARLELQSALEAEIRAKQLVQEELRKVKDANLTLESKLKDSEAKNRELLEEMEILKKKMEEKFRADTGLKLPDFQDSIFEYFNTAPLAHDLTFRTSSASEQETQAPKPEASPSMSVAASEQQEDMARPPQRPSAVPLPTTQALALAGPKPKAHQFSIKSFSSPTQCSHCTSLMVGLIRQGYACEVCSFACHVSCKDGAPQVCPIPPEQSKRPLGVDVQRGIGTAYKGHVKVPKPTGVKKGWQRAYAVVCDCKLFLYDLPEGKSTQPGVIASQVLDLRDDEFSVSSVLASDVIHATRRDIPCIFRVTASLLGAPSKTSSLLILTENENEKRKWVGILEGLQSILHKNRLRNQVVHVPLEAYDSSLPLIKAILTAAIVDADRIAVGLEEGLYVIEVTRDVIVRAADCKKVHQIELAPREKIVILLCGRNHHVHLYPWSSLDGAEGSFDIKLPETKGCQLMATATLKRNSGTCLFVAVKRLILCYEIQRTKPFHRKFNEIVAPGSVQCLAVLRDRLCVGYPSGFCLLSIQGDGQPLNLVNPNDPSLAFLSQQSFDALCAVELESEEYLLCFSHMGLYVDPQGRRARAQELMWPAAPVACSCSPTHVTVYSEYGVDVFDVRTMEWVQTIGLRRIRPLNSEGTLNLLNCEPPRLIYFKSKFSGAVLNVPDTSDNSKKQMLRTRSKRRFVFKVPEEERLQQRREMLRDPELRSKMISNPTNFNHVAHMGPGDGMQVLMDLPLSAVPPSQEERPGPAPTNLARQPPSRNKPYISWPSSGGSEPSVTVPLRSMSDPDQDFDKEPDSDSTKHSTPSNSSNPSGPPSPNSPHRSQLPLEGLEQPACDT

[5] = biological target: T1, Dual specificity mitogen-activated protein kinase kinase 6 (Homo sapiens) (UniProt P52564); assay: Selectivity interaction (KinomeScan (DiscoverX)) EUB0000595a MAP2K6; details: at 10 µM
T1 sequence (whole entry): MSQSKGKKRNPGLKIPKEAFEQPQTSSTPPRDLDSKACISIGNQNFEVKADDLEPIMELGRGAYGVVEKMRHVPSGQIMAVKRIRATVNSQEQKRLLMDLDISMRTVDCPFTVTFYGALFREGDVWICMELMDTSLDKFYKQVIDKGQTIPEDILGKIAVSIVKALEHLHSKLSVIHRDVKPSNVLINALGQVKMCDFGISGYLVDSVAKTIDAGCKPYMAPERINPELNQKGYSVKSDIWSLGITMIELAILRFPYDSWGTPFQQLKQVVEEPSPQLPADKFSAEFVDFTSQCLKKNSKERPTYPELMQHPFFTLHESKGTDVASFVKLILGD

[6] = biological target: LIM domain kinase 1 (Homo sapiens) (UniProt P53667); assay: Selectivity interaction (KinomeScan (DiscoverX)) EUB0000092b LIMK1; details: at 10 µM
LIM domain kinase 1 (Homo sapiens), sequence (P53667 whole entry, looked up, the tested form may be a part): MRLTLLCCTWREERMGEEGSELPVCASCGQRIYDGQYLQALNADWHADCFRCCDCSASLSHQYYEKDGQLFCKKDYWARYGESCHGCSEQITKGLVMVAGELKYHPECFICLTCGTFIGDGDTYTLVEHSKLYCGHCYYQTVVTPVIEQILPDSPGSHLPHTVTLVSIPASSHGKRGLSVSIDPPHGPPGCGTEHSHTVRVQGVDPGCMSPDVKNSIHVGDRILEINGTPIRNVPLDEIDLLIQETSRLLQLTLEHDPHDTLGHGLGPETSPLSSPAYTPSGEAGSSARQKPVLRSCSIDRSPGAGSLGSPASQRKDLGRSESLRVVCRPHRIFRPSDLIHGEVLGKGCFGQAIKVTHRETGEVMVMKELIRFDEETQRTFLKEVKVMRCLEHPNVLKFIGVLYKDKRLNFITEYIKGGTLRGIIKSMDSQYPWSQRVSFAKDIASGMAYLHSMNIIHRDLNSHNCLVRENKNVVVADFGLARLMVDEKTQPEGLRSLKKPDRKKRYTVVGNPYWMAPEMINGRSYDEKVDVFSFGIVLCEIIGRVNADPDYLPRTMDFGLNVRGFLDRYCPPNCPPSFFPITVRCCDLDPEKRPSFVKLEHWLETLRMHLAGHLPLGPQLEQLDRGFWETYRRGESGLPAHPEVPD

[7] = biological target: Serine/threonine-protein kinase N1 (Homo sapiens, UniProt Q16512); assay: Selectivity interaction (ActivX KiNativ screen (ex vivo kinase selectivity in human PBMCs)) EUB0001619a PKN1; type: cell-based; details: PBMC, at 1 µM
Serine/threonine-protein kinase N1, sequence (Q16512 2-942 limits assumed): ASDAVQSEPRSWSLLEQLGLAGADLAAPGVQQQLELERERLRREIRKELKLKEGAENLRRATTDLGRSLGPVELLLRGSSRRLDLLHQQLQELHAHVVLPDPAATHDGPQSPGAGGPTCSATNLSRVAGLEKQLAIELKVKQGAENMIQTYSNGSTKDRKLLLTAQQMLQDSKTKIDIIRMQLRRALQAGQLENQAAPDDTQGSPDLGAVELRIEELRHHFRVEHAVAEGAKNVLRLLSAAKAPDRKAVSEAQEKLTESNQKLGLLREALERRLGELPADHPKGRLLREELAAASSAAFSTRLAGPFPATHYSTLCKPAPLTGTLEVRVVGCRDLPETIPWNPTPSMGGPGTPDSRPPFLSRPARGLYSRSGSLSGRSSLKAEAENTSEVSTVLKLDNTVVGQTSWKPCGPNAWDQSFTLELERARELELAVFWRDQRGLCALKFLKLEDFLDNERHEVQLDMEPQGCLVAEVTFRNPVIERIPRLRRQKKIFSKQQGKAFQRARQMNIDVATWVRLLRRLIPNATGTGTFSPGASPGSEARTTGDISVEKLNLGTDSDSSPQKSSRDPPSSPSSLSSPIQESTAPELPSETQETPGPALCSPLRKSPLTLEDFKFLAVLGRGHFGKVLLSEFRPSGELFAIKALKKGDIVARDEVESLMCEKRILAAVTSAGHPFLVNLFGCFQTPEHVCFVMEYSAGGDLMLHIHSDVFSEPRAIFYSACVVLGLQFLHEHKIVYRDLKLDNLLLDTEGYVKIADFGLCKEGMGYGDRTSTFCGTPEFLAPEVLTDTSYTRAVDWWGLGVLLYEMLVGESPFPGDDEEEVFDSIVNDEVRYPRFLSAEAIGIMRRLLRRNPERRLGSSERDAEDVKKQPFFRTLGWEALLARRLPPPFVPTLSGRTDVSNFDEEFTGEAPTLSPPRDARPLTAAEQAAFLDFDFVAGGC

[8] = biological target: T2, Serine/threonine-protein kinase 36 (Homo sapiens) (UniProt Q9NRP7); assay: Selectivity interaction (KinomeScan (DiscoverX)) EUB0001619a STK36; details: at 1 µM
T2 sequence (whole entry): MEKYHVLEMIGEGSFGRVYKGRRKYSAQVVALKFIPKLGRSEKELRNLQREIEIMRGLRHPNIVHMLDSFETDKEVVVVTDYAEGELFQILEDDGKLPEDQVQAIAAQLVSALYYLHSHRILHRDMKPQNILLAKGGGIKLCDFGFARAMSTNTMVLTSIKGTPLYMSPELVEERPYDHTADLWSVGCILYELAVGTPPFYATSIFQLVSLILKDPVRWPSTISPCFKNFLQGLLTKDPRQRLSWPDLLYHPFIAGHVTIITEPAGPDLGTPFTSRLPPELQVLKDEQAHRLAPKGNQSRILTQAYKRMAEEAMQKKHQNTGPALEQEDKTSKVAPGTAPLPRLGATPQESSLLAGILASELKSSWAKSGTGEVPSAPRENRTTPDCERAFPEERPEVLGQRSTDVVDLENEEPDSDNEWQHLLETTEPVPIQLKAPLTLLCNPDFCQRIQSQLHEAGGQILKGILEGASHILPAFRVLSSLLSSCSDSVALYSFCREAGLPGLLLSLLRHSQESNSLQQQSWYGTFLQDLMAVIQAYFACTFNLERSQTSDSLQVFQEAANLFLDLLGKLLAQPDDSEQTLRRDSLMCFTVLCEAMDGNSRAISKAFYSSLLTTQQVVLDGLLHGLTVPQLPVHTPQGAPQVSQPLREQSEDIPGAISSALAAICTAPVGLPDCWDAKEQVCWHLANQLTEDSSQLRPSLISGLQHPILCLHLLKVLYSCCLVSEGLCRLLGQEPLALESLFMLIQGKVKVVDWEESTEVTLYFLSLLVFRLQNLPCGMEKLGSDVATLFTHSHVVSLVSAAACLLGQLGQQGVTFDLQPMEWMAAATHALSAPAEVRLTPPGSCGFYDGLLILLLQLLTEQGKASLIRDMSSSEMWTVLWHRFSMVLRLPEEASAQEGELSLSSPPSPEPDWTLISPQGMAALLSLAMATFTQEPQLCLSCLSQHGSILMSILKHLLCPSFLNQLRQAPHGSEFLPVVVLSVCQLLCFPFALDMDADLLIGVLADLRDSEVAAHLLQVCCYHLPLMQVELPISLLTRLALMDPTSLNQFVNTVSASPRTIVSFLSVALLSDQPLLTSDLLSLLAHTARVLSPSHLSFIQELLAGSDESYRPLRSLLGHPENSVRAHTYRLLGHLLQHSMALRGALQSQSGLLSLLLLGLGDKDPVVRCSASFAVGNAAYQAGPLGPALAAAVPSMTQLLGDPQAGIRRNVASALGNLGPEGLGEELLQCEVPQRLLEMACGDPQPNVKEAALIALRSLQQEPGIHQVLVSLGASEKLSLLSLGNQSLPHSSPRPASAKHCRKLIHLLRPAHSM

[9] = biological target: T3, Beta-adrenergic receptor kinase 1 (Homo sapiens) (UniProt P25098); assay: Selectivity interaction (Kinase panel (KiNativ target engagement assay in Jurkat cells)) EUB0001635a ADRBK1; type: cell-based; details: Selectivity number of off-targets 0.0, Selectivity number of targets 233.0, Source Knowledge https://www.sciencedirect.com/science/article/pii/S2451945619300674?via%3Dihub, at 1 µM
T3 sequence (whole entry): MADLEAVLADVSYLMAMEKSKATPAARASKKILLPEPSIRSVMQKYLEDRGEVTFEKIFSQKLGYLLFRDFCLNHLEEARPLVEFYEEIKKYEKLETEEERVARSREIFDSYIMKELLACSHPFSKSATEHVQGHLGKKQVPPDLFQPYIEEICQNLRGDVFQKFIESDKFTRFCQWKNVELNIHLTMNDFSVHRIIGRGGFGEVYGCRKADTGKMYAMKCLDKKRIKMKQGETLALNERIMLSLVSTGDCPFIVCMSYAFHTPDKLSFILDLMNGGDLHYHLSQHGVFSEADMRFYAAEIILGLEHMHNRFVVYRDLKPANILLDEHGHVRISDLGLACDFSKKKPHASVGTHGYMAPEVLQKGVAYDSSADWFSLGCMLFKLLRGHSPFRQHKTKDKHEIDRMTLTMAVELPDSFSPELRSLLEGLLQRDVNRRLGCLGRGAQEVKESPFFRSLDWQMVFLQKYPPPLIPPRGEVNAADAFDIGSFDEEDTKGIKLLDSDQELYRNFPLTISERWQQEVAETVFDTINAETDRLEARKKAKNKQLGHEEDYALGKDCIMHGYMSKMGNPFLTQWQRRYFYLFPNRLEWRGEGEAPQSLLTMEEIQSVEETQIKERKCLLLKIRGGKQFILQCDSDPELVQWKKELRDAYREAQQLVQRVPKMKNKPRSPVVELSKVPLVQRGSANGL

[10] = biological target: Serine/threonine-protein kinase PAK 2 (Homo sapiens) (UniProt Q13177); assay: Selectivity interaction (KinomeScan (DiscoverX)) EUB0000666a PAK2; details: at 10 µM

Tyrosine-protein kinase Fgr (Homo sapiens), sequence (P09769 2-529 limits assumed): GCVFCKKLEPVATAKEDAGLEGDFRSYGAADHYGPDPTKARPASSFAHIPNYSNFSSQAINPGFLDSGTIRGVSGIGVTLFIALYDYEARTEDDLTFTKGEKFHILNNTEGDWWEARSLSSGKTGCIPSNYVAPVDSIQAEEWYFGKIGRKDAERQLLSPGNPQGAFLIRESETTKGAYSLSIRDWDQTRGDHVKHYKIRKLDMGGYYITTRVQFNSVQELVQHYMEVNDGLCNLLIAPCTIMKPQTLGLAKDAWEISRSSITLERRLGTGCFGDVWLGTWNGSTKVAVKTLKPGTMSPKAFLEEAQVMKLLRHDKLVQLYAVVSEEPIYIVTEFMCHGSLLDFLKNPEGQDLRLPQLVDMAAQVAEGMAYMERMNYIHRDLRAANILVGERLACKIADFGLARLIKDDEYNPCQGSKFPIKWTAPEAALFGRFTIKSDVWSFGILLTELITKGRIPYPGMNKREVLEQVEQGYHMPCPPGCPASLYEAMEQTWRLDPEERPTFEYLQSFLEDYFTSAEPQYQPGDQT

`Cc1cc([C@@H](C)Nc2ccccc2C(=O)O)c2nc(N3CCOCC3)cc(=O)n2c1` [AZD-6482] was tested, and the % of control [1] was 83%.

Work on `CC[C@@H]1[C@H](F)C(=O)N[C@@H]1COc1nccc2cc(C(N)=O)c(OC)cc12` [ZIMLOVISERTIB] yielded a % of inhibition [2] of 8.5%.

`CN1Cc2nccc(-c3cn(C)nc3-c3ccc(F)cc3)c2C1=O` gave a % of inhibition [3] of 1%.

In the case of `Cc1cc(F)c(C(=O)Nc2cccc(-c3nncn3C(C)C)n2)cc1-n1cnc(C2CC2)c1`, the % of control [4] is reported as 100%.

For `COCC(=O)NC/C=C/c1ccc2ncnc(Nc3ccc(Oc4ccc(C)nc4)c(C)c3)c2c1` [CP-724714], the % of control [5] was 93%.

`CCC(=O)N1CCN(c2ccc(-n3c(=O)ccc4cnc5ccc(-c6cnc7ccccc7c6)cc5c43)cc2C(F)(F)F)CC1` gave a % of control [6] of 15%.

In the case of `N#Cc1cccc(-c2c[nH]c3ncnc(N4CCOCC4)c23)c1`, the % of inhibition [7] is reported as 31% and the % of control [8] is reported as 100%.

Compound `C=CC(=O)Nc1ccc(C(=O)Nc2[nH]nc3c2CN(C(=O)N[C@H](CN(C)C)c2ccccc2)C3(C)C)cc1` has a % of engagement [9] of -2.6%.

`O=C(NOC[C@H](O)CO)c1ccc(F)c(F)c1Nc1ccc(I)cc1F` was tested, and the % of control [10] was 93%.
